Entries after “also recorded” stand apart in the source; their conditions may differ. Where only a bound is given, the exact number is not on record here.

Data on 15 molecules can be found in patent publication US9371281B2, “Indole derivatives as inhibitors of histone deacetylase” (Pharmacyclics LLC, priority 2006, dated 2016).

One experiment has as its target T1, HDAC8 (Homo sapiens, UniProt Q9BY41).
T1 sequence (Q9BY41 1-377): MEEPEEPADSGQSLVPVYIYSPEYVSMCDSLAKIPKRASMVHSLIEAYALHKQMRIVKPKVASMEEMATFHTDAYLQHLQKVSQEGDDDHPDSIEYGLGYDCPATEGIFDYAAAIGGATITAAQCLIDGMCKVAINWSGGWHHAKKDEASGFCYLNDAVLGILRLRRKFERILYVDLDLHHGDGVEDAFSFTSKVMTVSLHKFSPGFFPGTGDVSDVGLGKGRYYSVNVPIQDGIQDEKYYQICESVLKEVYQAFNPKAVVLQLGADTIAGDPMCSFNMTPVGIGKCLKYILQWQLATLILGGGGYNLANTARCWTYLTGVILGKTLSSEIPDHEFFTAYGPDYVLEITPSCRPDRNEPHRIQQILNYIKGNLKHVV
Description: Inhibition of HDAC8 deacetylase activity in vitro. Type of experiment: biochemical.

The next experiment concerns the target HDAC1 (Homo sapiens, UniProt Q13547). The experiment in a line: Inhibition of HDAC1 deacetylase activity in vitro. As to conditions: ratio of IC50 values. Type of experiment: biochemical.
The subject of experiment [1] is Cytochrome C translocation in Jurkat cells. Description: Cytochrome C translocation, Western blotting of mitochondrial and cytosolic fractions. Type of experiment: cell-based. As to conditions: 12 or 24 hours. Background: In western blotting, separated proteins are transferred to a membrane and probed.
The test system of another experiment is PC3 (prostate). The experiment in a line: Apoptosis in solid tumor cells, Annexin V assay. Type of experiment: cell-based.
A further experiment relates to RKO (colon). The experiment in a line: Apoptosis in solid tumor cells, Annexin V assay. Type of experiment: cell-based.
Another experiment has as its system U87 (glioma). The experiment in a line: Apoptosis in solid tumor cells, Annexin V assay. Type of experiment: cell-based.
Experiment [2] concerns Jurkat. The experiment in a line: Apoptosis in T-cell lines, Annexin-V positive cells by flow cytometry. Type of experiment: cell-based. As to conditions: 3 Day dose.
The next experiment deals with HDAC8 protein expression. Description: Western blot of HDAC8 after 24 hr treatment in Jurkat cells.
For the next experiment, the system named is A549 (lung). The experiment in a line: Apoptosis in solid tumor cells, Annexin V assay. Type of experiment: cell-based.
A further experiment concerns HCT116 (colon). Description: Apoptosis in solid tumor cells, Annexin V assay. Type of experiment: cell-based, human.
The test system of another experiment is MCF-7 (breast). The experiment in a line: Apoptosis in solid tumor cells, Annexin V assay. Type of experiment: cell-based.
Experiment [3] relates to IL-1b secretion in THP-1 monocyte cell line. As to conditions: LPS, FIG. 12.
For experiment [4], the system named is normal human peripheral blood mononuclear cells. The experiment in a line: Cell proliferation, Alamar Blue assay (FIG. 9B). Type of experiment: cell-based. As to conditions: PBMCs, 24 hours.
In a further experiment the test system is Ovcar-3 (ovarian). Description: Apoptosis in solid tumor cells, Annexin V assay. Type of experiment: cell-based.
Experiment [5] relates to J.γ1. The experiment in a line: Apoptosis in T-cell lines, Annexin-V positive cells by flow cytometry. Type of experiment: cell-based. As to conditions: 3 Day dose.
Experiment [6] deals with J.RT3-T.5. Described as above. The note with it: 3 Day dose. Type of experiment: cell-based.
The test system of a further experiment is Jurkat cells. Description: Compound 23 induced apoptosis with Ca2+ effectors. Type of experiment: cell-based. An excerpt:
[…]. […] […].

The subject of experiment [7] is P116. The experiment in a line: Apoptosis in T-cell lines, Annexin-V positive cells by flow cytometry. Type of experiment: cell-based. As to conditions: 3 Day dose. (In general: A flow cytometer gives signals particle by particle.)
The subject of experiment [8] is IL-1b secretion in human PBMCs. The experiment in a line: Inhibition of IL-1b secretion in human PBMCs. Type of experiment: cell-based. As to conditions: FIG. 11. As to the method: Lipopolysaccharide (LPS, 25 ng/ml) is then added to stimulate the cells for another 16 hour incubation period in 5% CO2. IL-1b cytokine levels in the conditioned medium are then quantitated using a sandwich ELISA kit. Compounds are screened at 10, 1, 0.1, 0.01 and 0.001 μM. These same concentrations are concurrently applied to a separate group of treated cells and evaluated for possible compound-induced cytotoxicity.

For a further experiment, the target named is HDAC10 (Homo sapiens, UniProt Q969S8). Description: Inhibition of HDAC10 deacetylase activity in vitro. Type of experiment: biochemical. As to conditions: ratio of IC50 values.
Another experiment deals with HDAC3 (Homo sapiens, UniProt O15379). The experiment in a line: Inhibition of HDAC3 deacetylase activity in vitro. Type of experiment: biochemical. As to conditions: ratio of IC50 values.
The target of another experiment is HDAC2 (Homo sapiens, UniProt Q92769). The experiment in a line: Inhibition of HDAC2 deacetylase activity in vitro. Type of experiment: biochemical. As to conditions: ratio of IC50 values.
Another experiment addresses HDAC6 (Homo sapiens, UniProt Q9UBN7). Description: Inhibition of HDAC6 deacetylase activity in vitro. As to conditions: ratio of IC50 values. Type of experiment: biochemical.
In experiment [9] the test system is Jurkat. Description: Growth inhibition in T-cell lines (Table 6). Type of experiment: cell-based. As to conditions: Homo sapiens, 72 h, 3 Day dose.
The subject of experiment [10] is P116. Description: Growth inhibition in T-cell lines (Table 6). The note with it: 72 h, P116 (ZAP-70 deficient), 3 Day dose. Type of experiment: cell-based.
Experiment [11] deals with J.RT3-T.5. Description: Growth inhibition in T-cell lines (Table 6). The note with it: 72 h, J.RT3-T.5 (TCR-β chain deficient), 3 Day dose. Type of experiment: cell-based.
The next experiment has as its system HDAC1 levels. The note with it: Jurkat cells, 24 hr treatment, Western blot.
The subject of experiment [12] is J.γ1. Description: Growth inhibition in T-cell lines (Table 6). Type of experiment: cell-based. The note with it: 72 h, J.γ1 (Phospholipase C-γ1 deficient), 3 Day dose.

HDAC1, sequence (Q13547 whole entry): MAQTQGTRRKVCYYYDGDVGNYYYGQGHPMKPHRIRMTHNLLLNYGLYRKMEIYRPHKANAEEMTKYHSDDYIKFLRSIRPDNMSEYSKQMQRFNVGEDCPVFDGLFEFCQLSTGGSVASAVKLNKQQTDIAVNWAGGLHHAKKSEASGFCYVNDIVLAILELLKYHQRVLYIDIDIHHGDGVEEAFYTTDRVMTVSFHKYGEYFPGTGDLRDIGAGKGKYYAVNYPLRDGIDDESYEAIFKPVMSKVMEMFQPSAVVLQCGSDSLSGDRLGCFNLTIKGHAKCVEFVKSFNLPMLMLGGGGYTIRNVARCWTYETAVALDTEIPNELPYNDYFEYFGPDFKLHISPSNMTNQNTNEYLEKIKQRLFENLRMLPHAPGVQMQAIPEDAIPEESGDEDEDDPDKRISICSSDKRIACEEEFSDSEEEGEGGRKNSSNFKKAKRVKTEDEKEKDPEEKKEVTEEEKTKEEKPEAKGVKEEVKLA
HDAC2, sequence (Q92769 whole entry): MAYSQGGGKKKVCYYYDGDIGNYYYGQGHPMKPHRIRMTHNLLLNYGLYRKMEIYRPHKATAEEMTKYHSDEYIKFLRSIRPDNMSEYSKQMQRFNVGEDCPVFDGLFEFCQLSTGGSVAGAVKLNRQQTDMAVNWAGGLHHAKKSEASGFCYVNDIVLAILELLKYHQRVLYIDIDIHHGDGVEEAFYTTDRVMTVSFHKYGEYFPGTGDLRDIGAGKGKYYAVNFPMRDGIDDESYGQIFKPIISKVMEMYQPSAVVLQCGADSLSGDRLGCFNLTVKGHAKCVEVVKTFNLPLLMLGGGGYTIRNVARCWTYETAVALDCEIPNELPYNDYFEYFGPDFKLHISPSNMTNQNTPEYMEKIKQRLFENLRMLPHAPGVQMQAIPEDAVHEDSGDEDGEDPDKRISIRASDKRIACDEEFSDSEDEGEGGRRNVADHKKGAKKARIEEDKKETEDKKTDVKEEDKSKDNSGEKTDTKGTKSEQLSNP
HDAC6, sequence (Q9UBN7 whole entry): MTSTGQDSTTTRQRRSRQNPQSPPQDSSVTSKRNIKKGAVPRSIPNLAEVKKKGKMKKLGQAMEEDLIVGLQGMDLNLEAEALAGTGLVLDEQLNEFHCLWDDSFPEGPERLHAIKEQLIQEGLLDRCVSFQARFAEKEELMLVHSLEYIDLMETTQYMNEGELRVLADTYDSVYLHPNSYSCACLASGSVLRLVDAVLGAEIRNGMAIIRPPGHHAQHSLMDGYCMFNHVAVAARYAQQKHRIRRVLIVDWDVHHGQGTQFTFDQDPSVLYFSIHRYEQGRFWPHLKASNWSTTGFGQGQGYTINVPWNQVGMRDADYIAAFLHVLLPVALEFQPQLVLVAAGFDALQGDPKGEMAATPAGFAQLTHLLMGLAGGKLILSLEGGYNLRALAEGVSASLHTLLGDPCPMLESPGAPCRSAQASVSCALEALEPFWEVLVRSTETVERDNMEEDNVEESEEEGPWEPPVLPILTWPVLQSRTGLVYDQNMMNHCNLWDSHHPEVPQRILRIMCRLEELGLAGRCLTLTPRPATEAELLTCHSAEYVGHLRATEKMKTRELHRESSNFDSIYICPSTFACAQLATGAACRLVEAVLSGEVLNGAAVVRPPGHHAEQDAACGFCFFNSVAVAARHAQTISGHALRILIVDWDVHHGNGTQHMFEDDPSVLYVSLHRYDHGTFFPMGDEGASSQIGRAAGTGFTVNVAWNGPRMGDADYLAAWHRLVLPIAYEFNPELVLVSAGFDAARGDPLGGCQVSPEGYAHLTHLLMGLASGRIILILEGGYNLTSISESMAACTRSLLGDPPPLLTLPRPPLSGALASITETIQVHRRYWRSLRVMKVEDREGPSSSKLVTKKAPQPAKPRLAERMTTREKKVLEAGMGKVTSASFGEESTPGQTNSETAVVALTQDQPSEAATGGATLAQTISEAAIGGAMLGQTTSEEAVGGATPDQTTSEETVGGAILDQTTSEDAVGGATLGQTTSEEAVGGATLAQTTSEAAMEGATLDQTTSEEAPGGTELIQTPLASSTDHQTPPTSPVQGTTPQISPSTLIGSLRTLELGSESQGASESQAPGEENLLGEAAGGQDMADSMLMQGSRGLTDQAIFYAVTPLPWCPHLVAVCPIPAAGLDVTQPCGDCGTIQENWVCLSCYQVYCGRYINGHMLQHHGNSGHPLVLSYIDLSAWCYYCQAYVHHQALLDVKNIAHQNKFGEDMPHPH
HDAC10, sequence (Q969S8 whole entry): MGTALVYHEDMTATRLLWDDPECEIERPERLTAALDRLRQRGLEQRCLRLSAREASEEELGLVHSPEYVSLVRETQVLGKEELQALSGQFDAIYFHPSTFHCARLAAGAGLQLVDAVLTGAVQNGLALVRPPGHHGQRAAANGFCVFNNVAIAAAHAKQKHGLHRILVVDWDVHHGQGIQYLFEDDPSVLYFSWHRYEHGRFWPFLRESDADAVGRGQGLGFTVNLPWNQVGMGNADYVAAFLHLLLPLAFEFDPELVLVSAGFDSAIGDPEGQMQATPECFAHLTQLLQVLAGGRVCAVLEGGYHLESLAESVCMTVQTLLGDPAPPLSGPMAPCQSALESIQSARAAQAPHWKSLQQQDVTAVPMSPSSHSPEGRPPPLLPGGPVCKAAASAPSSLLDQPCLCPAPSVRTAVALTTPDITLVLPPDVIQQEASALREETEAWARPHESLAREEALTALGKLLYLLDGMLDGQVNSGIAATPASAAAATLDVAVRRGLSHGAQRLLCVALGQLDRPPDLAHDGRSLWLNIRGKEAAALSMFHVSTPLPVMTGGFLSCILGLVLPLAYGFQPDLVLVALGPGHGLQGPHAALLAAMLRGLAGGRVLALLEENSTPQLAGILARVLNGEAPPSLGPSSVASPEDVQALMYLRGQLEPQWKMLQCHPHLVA
HDAC3, sequence (O15379 whole entry): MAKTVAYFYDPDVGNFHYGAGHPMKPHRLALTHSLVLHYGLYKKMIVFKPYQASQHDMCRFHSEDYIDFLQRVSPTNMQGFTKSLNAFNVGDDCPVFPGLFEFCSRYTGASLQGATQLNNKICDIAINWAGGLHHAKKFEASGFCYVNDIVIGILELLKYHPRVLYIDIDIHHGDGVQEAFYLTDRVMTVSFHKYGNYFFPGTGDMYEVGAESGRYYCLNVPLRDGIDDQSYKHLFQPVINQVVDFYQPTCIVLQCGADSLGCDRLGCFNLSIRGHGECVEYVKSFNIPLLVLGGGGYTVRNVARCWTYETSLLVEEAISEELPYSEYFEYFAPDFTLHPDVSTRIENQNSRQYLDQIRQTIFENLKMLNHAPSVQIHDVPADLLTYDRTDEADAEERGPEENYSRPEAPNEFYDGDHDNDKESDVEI
HDAC3, sequence (Q9Y618 389-480 partner limits assumed): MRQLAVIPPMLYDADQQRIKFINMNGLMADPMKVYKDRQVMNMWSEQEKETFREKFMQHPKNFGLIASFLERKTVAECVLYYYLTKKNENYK
Description for HDAC1 levels: (§1) Western blot of HDAC8 & HDAC1 after 24 hr treatment in Jurkat cells were obtained.
Description for HDAC8 protein expression: as §1

At HDAC8, `O=C(NO)c1ccc2ccn(CC=Cc3ccccc3)c2c1` [Compound 16, 1-[1-(phenyl)-propen-3-yl]-1H-indole-6-carboxylic acid hydroxyamide] returned an IC50 below 100 nM. The HDAC-1/HDAC-8 result on HDAC1 is reported as “B (B >100)”.
`O=C(NO)c1ccc2ccn(Cc3ccc(OC(F)(F)F)cc3)c2c1` [Compound 17, 1-[4-(trifluoromethoxy)-phenylmethyl]-1H-indole-6-carboxylic acid hydroxyamide] displayed an IC50 against HDAC8 below 100 nM. Moreover, the HDAC-1/HDAC-8 result at HDAC1 is “B (B >100)”.
At HDAC8, `O=C(NO)c1ccc2ccn(Cc3ccc(Cl)cc3)c2c1` [Compound 18, 1-(4-chloro-phenylmethyl)-1H-indole-6-carboxylic acid hydroxyamide] displayed an IC50 below 100 nM. In addition, the HDAC-1/HDAC-8 result on HDAC1 was “B (B >100)”.
Taken in the same sequence, the figures for `O=C(NO)c1ccc2ccn(Cc3ccc4nonc4c3)c2c1` [Compound 19, 1-(benzo[2,1,3]oxadiazol-5-ylmethyl)-1H-indole-6-carboxylic acid hydroxyamide] were below 100 nM and “B (B >100)”.
The like results for `Cc1ccc(Cn2ccc3ccc(C(=O)NO)cc32)cc1` [Compound 20, 1-(4-methyl-phenylmethyl)-1H-indole-6-carboxylic acid hydroxyamide] were, in that order, below 100 nM and “B (B >100)”.
Taken in the same sequence, the figures for `COc1ccc(Cn2ccc3ccc(C(=O)NO)cc32)cc1F` [Compound 21, 1-(3-fluoro-4-methoxy-phenylmethyl)-1H-indole-6-carboxylic acid hydroxyamide] were below 100 nM and “B (B >100)”.
The molecule `O=C(NO)c1ccc2ccn(Cc3ccc(OC(F)F)cc3)c2c1` [Compound 22, 1-[4-(difluoromethoxy)-phenylmethyl]-1H-indole-6-carboxylic acid hydroxyamide] came in with an IC50 against HDAC8 below 100 nM. Also, the HDAC-1/HDAC-8 entry on HDAC1 is “B (B >100)”.
As to `COc1ccc(Cn2ccc3ccc(C(=O)NO)cc32)cc1` [Compound 23, 1-(4-methoxy-phenylmethyl)-1H-indole-6-carboxylic acid hydroxyamide], the “Cytochrome C translocation from mitochondria to cytosol” value in [1] was “Cytochrome C translocation from mitochondria to cytosol”. For the same molecule, the “% apoptosis at 20 μM (Annexin V assay)” value in the experiment with PC3 (prostate) is 0%; in the experiment on RKO (colon) it was 0%; with U87 (glioma) it was 0%; in the experiment with A549 (lung), 0%; with HCT116 (colon), 3%; in the experiment with MCF-7 (breast), 0%. Moreover, in the experiment on Ovcar-3 (ovarian), the “% apoptosis at 20 μM (Annexin V assay)” value was determined as 15%. Moreover, the “Apoptosis at 5 μM (%)” value stood at 43% in the experiment with Jurkat [2] (5 μM); 12% in the experiment with J.γ1 [5] (J.γ1, 5 μM); 67% in the experiment with J.RT3-T.5 [6] (J.RT3-T.5, 5 μM); 82% in the experiment on P116 [7] (P116, 5 μM). In the experiment with HDAC8 protein expression, the HDAC8 protein levels result is given as “affected”. For the same molecule, the values for the IL-1b secretion entry in experiment [3] and in experiment [8] were “reduction of IL-1b secretion” and “inhibition of IL-1b secretion”, respectively. Moreover, the effect on growth entry in [4] is listed as “failed to inhibit the growth; also recorded: does not inhibit growth”. For the same molecule, the “compound 23 induced apoptosis with Ca2+ effector thapsigargin” value in the experiment with Jurkat cells (compound 23=5 μM, thapsigargin=0.2 μM) is “enhanced”. Besides, the “compound 23 induced apoptosis with Ca2+ chelator BAPTA-AM” value with Jurkat cells (compound 23=10 μM, BAPTA 0.5 μM) was “inhibited”.
In the case of `Cn1cc(Cc2ccc([N+](=O)[O-])cc2)c2cc(C(=O)NO)ccc21` [Compound 34, 1-methyl-3-(4-nitro-phenylmethyl)-1H-indole-5-carboxylic acid hydroxyamide], the HDAC-10/HDAC-8 entry on HDAC10 is listed as “B (B >100)”. The IC50 against HDAC8 was below 100 nM. In addition, the HDAC-1/HDAC-8 entry at HDAC1 is “A (A >10 and <100)”. In addition, the HDAC-3/HDAC-8 entry at HDAC3 is “A (A >10 and <100)”. Also, the HDAC-2/HDAC-8 entry at HDAC2 is “B (B >100)”. Besides, the HDAC-6/HDAC-8 result at HDAC6 is “A (A >10 and <100)”.
Take `CCn1cc(Cc2ccccc2)c2cc(C(=O)NO)ccc21` [Compound 35, 1-ethyl-3-(phenylmethyl)-1H-indole-5-carboxylic acid hydroxyamide]: the IC50 against HDAC8 is below 100 nM. Further, the HDAC-1/HDAC-8 entry on HDAC1 is “A (A >10 and <100)”.
In turn, `Cn1cc(Cc2ccc(NC(=O)c3ccccc3)cc2)c2cc(C(=O)NO)ccc21` [Compound 36, 1-methyl-3-[4-(phenylcarbonylamino)-phenylmethyl]-1H-indole-5-carboxylic acid hydroxyamide] yielded an IC50 against HDAC8 below 100 nM. The HDAC-1/HDAC-8 result on HDAC1 was “A (A >10 and <100)”.
As for `CC(C)n1cc(Cc2ccccc2)c2cc(C(=O)NO)ccc21` [Compound 37, 1-isopropyl-3-(phenylmethyl)-1H-indole-5-carboxylic acid hydroxyamide], the IC50 on HDAC8 is below 100 nM. Moreover, at HDAC1, the HDAC-1/HDAC-8 entry was “A (A >10 and <100)”.
In turn, `Cn1cc(Cc2ccc(N)cc2)c2cc(C(=O)NO)ccc21` [Compound 38, 1-methyl-3-(4-amino-phenylmethyl)-1H-indole-5-carboxylic acid hydroxyamide] yielded a 50% inhibitory concentration (IC50) against HDAC8 below 100 nM. The HDAC-1/HDAC-8 result on HDAC1 was “A (A >10 and <100)”.
`Cn1cc(Cc2ccc(F)cc2)c2cc(C(=O)NO)ccc21` [Compound 39, 1-methyl-3-(4-fluoro-phenylmethyl)-1H-indole-5-carboxylic acid hydroxyamide]: the HDAC-10/HDAC-8 entry at HDAC10 is recorded as “B (B >100)”. In addition, at HDAC8, the IC50 is below 100 nM. Also, the HDAC-1/HDAC-8 entry on HDAC1 is recorded as “B (B >100)”. The HDAC-3/HDAC-8 entry at HDAC3 was “A (A >10 and <100)”. In addition, the HDAC-2/HDAC-8 entry on HDAC2 is on record as “B (B >100)”. For the same molecule, the HDAC-6/HDAC-8 result on HDAC6 was “A (A >10 and <100)”.
On to `CN(C)Cc1c(C(=O)NCCOc2ccc(C(=O)NO)cc2)oc2ccccc12` [PCI-24781, reference compound], for which the GI50 in the experiment on Jurkat [9] is 130 nM; with P116 [10] it was 190 nM; in the experiment with J.RT3-T.5 [11] it was 140 nM; in the experiment with J.γ1 [12], 140 nM. In addition, the “Apoptosis at 0.125 μM (%)” value came to 48% in the experiment with Jurkat [2] (0.125 μM); 18% in the experiment on J.γ1 [5] (J.γ1, 0.125 μM); 32% in the experiment with J.RT3-T.5 [6] (J.RT3-T.5, 0.125 μM); 76% in the experiment with P116 [7] (P116, 0.125 μM). Moreover, in the experiment with HDAC8 protein expression, the HDAC8 protein levels entry was “affected”. In the experiment with HDAC1 levels, the HDAC1 levels result is “decreased”.

As usually defined, the IC50 is the concentration that inhibits the measured activity by half. Usually GI50 stands for the concentration that inhibits growth by half. Lower therefore signals greater sensitivity of the cells.
